Reference: US6709830B2, “Methods for modulating the activation of a lymphocyte expressed G protein coupled receptor involved in cell proliferation, autoimmunity and inflammation” (The Regents of the University of California, priority 1997, dated 2004)
“Also recorded” adds a separate entry of the source.

Tests used:
G2A [1] = biological target: T1, G2A (Mus musculus, UniProt Q9Z282); experiment: Calcium assay ([Ca2+]i, Fura-2) in G2A.GFP transfected MCF 10A cells; format: cell-based; conditions: for transient increase in [Ca2+]i: LPC 0.1 μM, SPC 0.1 μM, LPA 1 μM, PAF 0.1 μM, ATP 20 μM; for desensitisation to subsequent stimulation with LPC or SPC (1 μM): pretreatment 5 minutes with LPC 1 μM or SPC 10 μM (b23 prints SPC 1.0 μM)
T1 construct: expressed in transfected cells; host or cells: MCF 10A (human breast epithelial cells, no endogenous G2A), plasmid pEXV3 G2A.GFP
T1 sequence (Q9Z282 1-382): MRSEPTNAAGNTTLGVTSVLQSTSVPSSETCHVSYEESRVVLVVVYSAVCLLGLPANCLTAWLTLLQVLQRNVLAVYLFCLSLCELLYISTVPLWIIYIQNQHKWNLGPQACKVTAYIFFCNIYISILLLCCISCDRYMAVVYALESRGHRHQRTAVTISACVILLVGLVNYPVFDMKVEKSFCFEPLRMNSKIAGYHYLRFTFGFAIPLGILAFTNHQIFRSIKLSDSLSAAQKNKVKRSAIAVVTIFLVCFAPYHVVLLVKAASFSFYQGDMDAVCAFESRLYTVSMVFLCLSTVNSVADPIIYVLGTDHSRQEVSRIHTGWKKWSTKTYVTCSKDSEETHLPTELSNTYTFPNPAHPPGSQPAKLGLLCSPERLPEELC
Method: (§1) MCF 10A cells were cultured in specialised glass-bottom dishes (Bioptech, Inc., Butler, Pa.) and loaded with Fura-2/AM ([…]; Molecular Probes) at 37° C. for 30 minutes in HEPES buffered saline (pH 7.4) containing 125 mM NaCl, 5 mM KCl, 1.2 mM MgSO4, 11 mM glucose, 1.8 mM CaCl2, 25 mM HEPES, 0.2% BSA. Loaded cells were washed, placed in HEPES buffeted saline without BSA, and incubated for 30 minutes at ambient temperature ensure dye hydrolysis by cytosolic esterases. Using a dual-wavelength spectrofluorometer (RFK-6002, Photon Technology Int'l, So. Brunswick, N.J.) coupled to an inverted fluorescence microscope (Olympus, IX-70, Lake Success, N.Y.), GFP-positive cells were identified using an excitation wavelength of 488 nm, a dichroic 505 nm long-pass and an emitter bandpass of 535 nm (Chroma Technology, Brattleboro, Vt.). [Ca^2+], measurements were performed on individual GFP-positive cells at excitation wavelengths of 340 nm and 380 nm, and an emission wavelength of 510 nm. Prior to data acquisition, background fluorescence (areas without cells) was measured and automatically subtracted from subsequent measurements. Agonists were diluted in HEPES buffered saline and solution changes accomplished by rapidly aspirating the buffer and replacing it with HEPES buffered saline containing the specific agonist. Fura-2 fluorescence signals (340 nm, 380 nm and the 340/380 ratio) originating from individual GFP-positive cells were continuously monitored at a sampling frequency of 25 Hz and collected using a software package from Photon Technology International (Felix™). Conversion of the 340 nm/380 nm ratio value into [Ca^2+]i was estimated by comparing the cellular fluorescence ratio with ratios acquired using Fura-2 (free acid) in buffers containing known Ca^2+ concentrations. [Ca^2+]i was then calculated as described by Grynkiewicz, et al (Grynkiewicz, G, et al, J Biol Chem, 260: pp3440-3450, 1985). All assays were performed in assay buffers containing 1 mM EGTA to exclude measurement of calcium influx.
(§2) To address whether G2A is a lysophospholipid receptor, we examined signalling events in cells ectopically expressing G2A as functional correlates of receptor activation. […] [Ca^2+]i measurements were performed in MCF 10A cells transfected with plasmids encoding green fluorescent protein (GFP) tagged G2A (pEXV3 G2A.GFP) (Kabarowski, J H S, et al, PNAS, 97: pp12109-12114, 2000) or GFP as described (Yan Xu and Derek S. Damron, Methods in Molecular Medicine, 39: Ovarian Cancer: Methods and Protocols, pp611-619, 2000). […] Similarly, dose-dependent responses of G2A.GFP transfected cells to SPC were observed, with an EC50 of approximately 0.4 μM (FIG. 4B). […] Responses to these agonists were not affected by G2A.GFP expression (FIG. 4A, middle and lower panels).

G2A [2] = biological target: T1, G2A; experiment: Radioligand binding assay with cell homogenates of HEK 293 G2A.GFP cells; conditions: for competition for binding of [3H] 16:0 LPC / [3H] SPC to G2A: radioligand 1 nM, unlabelled lipids 100 nM, HEK 293 G2A.GFP
Method: To characterise the binding of LPC and SPC to G2A, we performed radioligand binding assays as described previously (Xu, Y, e al, Nature Cell Biology, 2: pp261-267, 2000). [^3H] 16:0 LPC and [^3H] SPC bound to cell homogenates from G2A expressing HEK 293 cells in a time-dependent manner and reached equilibrium after 60 minutes incubation at 4° C. (FIGS. 5A and B). […] LPC and [^3H] SPC. Binding of [^3H] LPC and [^3H] […] The maximum binding capacities for LPC and SPC were approximately 1,503 fmole/10^5 cells and 1,840 fmole/10^5 cells respectively.
Binding assay HEK 293 GFP or HEK 293 G2A.GFP cells were serum starved for 20 hours and subsequently collected in PBS/EDTA. Pelleted cells were stored at −80° C. until use. Frozen cells (10^6 cells/ml) were homogenized in “binding buffer” containing 20 mM Tris-HCl pH 7.5, 100 mM NaCl, 15 mM NaF, 0.2 mM PMSF, 1 mM MgCl2 and 4 mg/ml fatty acid-free BSA in a tight-fit glass Dounce homogeniser. Assays were performed in 96-well plates in triplicate with 100 μl cell homogenate (equivalent to 10^5 cells/well). Varying amounts of [^3H] 16:0 LPC or [^3H] SPC were added to cell homogenates in 50 μl of binding buffer in the presence or absence of cold 16:0 LPC or SPC, or other competitors. Plates were incubated at 4° C. for 2 hours, or for the indicated times. Cell-bound [^3H] LPC or [^3H] SPC was collected onto a filter (Printed Filtermat A, Wallac, Gaithersburg, Md.) using an automated cell harvester (HARVESTER 96, Tomtec, Orange, Conn.). A pause wash programme (five cycle washes) was used. Filters were presoaked in 1% polyethyleneimine (Sigma) to prevent nonspecific binding, dried, sealed in bags (Sample Bag, Wallac) with 4.5 ml Betaplate “Scint” scintillation cocktail (Wallac), and counted in a 1450 Microbeta Trilux Liquid Scintillation and Luminescence Counter (Wallac). Specific binding was calculated by subtraction of nonspecific binding (binding detected in the presence of 100-fold excess unlabelled lipid) from total binding.

MCF 10A cells = experiment: Calcium assay ([Ca2+]i, Fura-2) in parental or pEXV3 GFP transfected MCF 10A cells (control); format: cell-based, human; conditions: SPC or LPC up to 10 μM, LPA 1 μM, PAF 0.1 μM, ATP 20 μM
Method: as §1, §2

G2A.GFP fusion receptor = biological target: T2, G2A.GFP fusion receptor (Mus musculus, UniProt Q9Z282); experiment: Internalisation of G2A.GFP in HEK 293 G2A.GFP cells (confocal microscopy); format: cell-based; conditions: lipid 0.1 μM, 2 hours, serum starved HEK 293 G2A.GFP cells
T2 construct: expressed in transfected cells; host or cells: HEK 293 cells infected with amphotropic MSCV G2A.GFP retrovirus
T2 sequence (Q9Z282 1-382): T1 sequence (Q9Z282 1-382)
Method: Agonist dependent receptor internalisation is a feature of GPCRs. G2A.GFP expressing HEK 293 cells (HEK 293 G2A.GFP) were generated by infection with amphotropic MSCV G2A.GFP retroviruses. In serum starved HEK 293 G2A.GFP cells, G2A.GFP is expressed predominantly on the plasma membrane. LPC (0.1 μM), as well as SPC (1 μM), induced internalisation of G2A.GFP in over 90% of cells (FIG. 6). Neither LPA, S-1-P or PAF induced G2A internalisation, which is consistent with LPC acting as a specific ligand for G2A. Treatment of HEK 293 G2A.GFP cells with SPC at low concentrations (0.1 μM) induced receptor internalisation in fewer cells (<50%).
HEK 293 G2A.GFP cells were seeded onto glass coverslips and subsequently serum starved for 16-24 hours prior to treatment with lipids. Two hours following lipid treatment, coverslips were washed with cold PBS and fixed with PBS/4% paraformaldehyde. Subcellular localisation of G2A.GFP was visualised under a confocal fluorescence microscope with a 60× oil immersion lens.

[3] = G2A.GFP transfected MCF 10A cells
[4] = G2A.GFP-transfected MCF 10A cells
[5] = PTX 100 ng/ml, 16 hours, G2A.GFP-transfected MCF 10A cells
[6] = BN 52021 200 μM pretreatment, G2A.GFP-transfected MCF 10A cells

Compound: CCCCCCCCCCCCCC(=O)O[C@@H]1[C@@H](C)[C@@]2(O)[C@@H](C=C(CO)C[C@]3(O)C(=O)C(C)=C[C@@H]23)[C@@H]2C(C)(C)[C@]12OC(C)=O [PMA, Phorbol 12-myristate 13-acetate]
- effect of pretreatment on [Ca2+]i increases induced by LPA, LPC and SPC (up to 10 μM) (G2A [1]; PMA 100 nM (b23 prints 0.1 mM), 5 minutes, G2A.GFP-transfected MCF 10A cells): abolished; also recorded: inhibits
- effect of pretreatment on [Ca2+]i increases induced by PAF (0.1 μM) and ATP (20 μM) (G2A [1]; PMA 100 nM, 5 minutes, G2A.GFP-transfected MCF 10A cells): did not affect

Compound: lysophosphatidyc acid [LPA]
- competition for binding of [3H] 16:0 LPC / [3H] SPC to G2A (G2A [2]): not
- [Ca2+]i response in control cells (MCF 10A cells): transient elevations
- transient increase in [Ca2+]i (G2A [1]; [3]): transient elevations

Compound: CCCCCCCCCCCCCC(=O)OC[C@@H](O)COP(=O)([O-])OCC[N+](C)(C)C [14:0 LPC]
- competition for binding of [3H] 16:0 LPC / [3H] SPC to G2A (G2A [2]): not and not able to compete

Compound: sphingomyelin [SM]
- competition for binding of [3H] 16:0 LPC / [3H] SPC to G2A (G2A [2]): not

Compound: CCCCCCCCCCCCCCCCOC[C@H](COP(=O)([O-])OCC[N+](C)(C)C)OC(C)=O [PAF]
- competition for binding of [3H] 16:0 LPC / [3H] SPC to G2A (G2A [2]): not
- [Ca2+]i response in control cells (MCF 10A cells): transient elevations
- transient increase in [Ca2+]i (G2A [1]; [3]): transient elevations

Compound: CCCCCCCCCCCCCCCC(=O)OC[C@@H](O)COP(=O)([O-])OCC[N+](C)(C)C [16:0 LPC]
- competition for binding of [3H] 16:0 LPC / [3H] SPC to G2A (G2A [2]): potent competitors
- desensitisation to subsequent stimulation with LPC or SPC (1 μM) (G2A [1]; [4]): induces desensitisation

Compound: CCCCCCCCCCCCC/C=C/[C@@H](O)[C@@H](N)COP(=O)(O)O [S-1-P]
- competition for binding of [3H] 16:0 LPC / [3H] SPC to G2A (G2A [2]): not

Compound: CCCCCCCCCCCCC/C=C/[C@@H](O)[C@@H](N)COP(=O)([O-])OCC[N+](C)(C)C [SPC, sphingosylphosphorylcholine]
- Kd (G2A [2]; Scatchard analysis, saturation binding of [3H] 16:0 LPC or [3H] SPC, HEK 293 G2A.GFP cell homogenate, 4° C., read-out: dissociation constant (Kd)): 229 nM
- competition for binding of [3H] 16:0 LPC / [3H] SPC to G2A (G2A [2]): competed for binding
- maximum binding capacity (G2A [2]; saturation binding, HEK 293 G2A.GFP cell homogenate): ~1,840 fmole/10^5 cells
- [Ca2+]i response in control cells (MCF 10A cells): Neither parental or pEXV3 GFP transfected cells responded
- EC50 (G2A [1]; G2A.GFP transfected MCF 10A cells, 1 mM EGTA in buffer, read-out: EC50 of dose-dependent increase in [Ca2+]i): ~400 nM
- transient increase in [Ca2+]i (G2A [1]; [3]): induced a transient increase in [Ca^2+], albeit to a lesser extent; also recorded: induce transient [Ca^2+], increases
- desensitisation to subsequent stimulation with LPC or SPC (1 μM) (G2A [1]; [4]): induced homologous and heterologous desensitisation; also recorded: induces desensitisation
- cells with internalisation of G2A.GFP (G2A.GFP fusion receptor): < 50%

Compound: CCCCCCCCCCCCCCCCOC[C@@H](O)COP(=O)([O-])OCC[N+](C)(C)C [lyso-PAF]
- competition for binding of [3H] 16:0 LPC / [3H] SPC to G2A (G2A [2]): not

Compound: Pertussis Toxin [PTX]
- effect of pretreatment on [Ca2+]i increases induced by LPA (1 μM), LPC (0.1 μM-5 μM) and SPC (1 μM-5 μM) (G2A [1]; [5]): inhibits
- effect of pretreatment on [Ca2+]i increases induced by PAF (0.1 μM) or ATP (20 μM) (G2A [1]; [5]): not

Compound: Nc1ncnc2c1ncn2[C@@H]1O[C@H](COP(=O)(O)OP(=O)(O)OP(=O)(O)O)[C@@H](O)[C@H]1O [ATP]
- [Ca2+]i response in control cells (MCF 10A cells): transient elevations
- transient increase in [Ca2+]i (G2A [1]; [3]): transient elevations

Compound: CC1C(=O)OC2C(O)C34C5CC(C(C)(C)C)C36C(OC(=O)C6O)OC4(C(=O)O5)C12O (stereo not drawn) [BN 52021]
- effect of pretreatment on [Ca2+]i increase induced by LPC (1 μM), SPC (1 μM), LPA (1 μM) or ATP (20 μM) (G2A [1]; [6]): not
- effect of pretreatment on [Ca2+]i increase induced by PAF (G2A [1]; [6]): completely blocked

Compound: lysophosphatidylinositol [LPI]
- competition for binding of [3H] 16:0 LPC / [3H] SPC to G2A (G2A [2]): not

Compound: CCCCCCCCCCCCCCCCCC(=O)OC[C@@H](O)COP(=O)([O-])OCC[N+](C)(C)C [18:0 LPC]
- competition for binding of [3H] 16:0 LPC / [3H] SPC to G2A (G2A [2]): potent competitors
